What was measured:
Assay in all cases: Ames mutagenicity test (back mutation)
Assay type in all cases: cell-based
Set-up in all cases: key: -: no back mutation; (+): slight back mutuation; +: increasing back mutation; ++: increasing back mutation
[1] = system: Salmonella thyphimurium strain TA 98
From the text: (§1) Salmonella thyphimurium strains
(§2) without (-) and with (+) S9 - Mix

[2] = system: Salmonella thyphimurium strain TA 97
From the text: as §1, §2

[3] = system: Salmonella thyphimurium strain TA 100
From the text: as §1, §2

## Cc1cc(OC(F)(F)C(F)F)c(N)cc1N [2,4-diamino-5-tetrafluoroethoxy-toluene, 2,4-diamino-5-tetrafluoroethoxytoluene]
[1]; with (+) S9-Mix
  Ames test result, TA 98: -
[1]; without (-) S9-Mix
  Ames test result, TA 98: -
[2]; with (+) S9-Mix
  Ames test result, TA 97: -
[2]; without (-) S9-Mix
  Ames test result, TA 97: -
[3]; with (+) S9-Mix
  Ames test result, TA 100: -
[3]; without (-) S9-Mix
  Ames test result, TA 100: -

## COc1ccc(N)cc1N [2,4-diaminoanisol]
[1]; with (+) S9-Mix
  Ames test result, TA 98: ++
[1]; without (-) S9-Mix
  Ames test result, TA 98: -
[2]; with (+) S9-Mix
  Ames test result, TA 97: +
[2]; without (-) S9-Mix
  Ames test result, TA 97: -
[3]; with (+) S9-Mix
  Ames test result, TA 100: (+)
[3]; without (-) S9-Mix
  Ames test result, TA 100: -

## CCOc1ccc(N)cc1N [2,4-diaminophenetol]
[1]; with (+) S9-Mix
  Ames test result, TA 98: ++
[1]; without (-) S9-Mix
  Ames test result, TA 98: -
[2]; with (+) S9-Mix
  Ames test result, TA 97: +
[2]; without (-) S9-Mix
  Ames test result, TA 97: -
[3]; with (+) S9-Mix
  Ames test result, TA 100: -
[3]; without (-) S9-Mix
  Ames test result, TA 100: -

## Nc1ccc(OC(F)(F)C(F)F)c(N)c1 [2,4-diaminotetrafluoroethoxybenzene]
[1]; with (+) S9-Mix
  Ames test result, TA 98: +
[1]; without (-) S9-Mix
  Ames test result, TA 98: -
[2]; with (+) S9-Mix
  Ames test result, TA 97: (+)
[2]; without (-) S9-Mix
  Ames test result, TA 97: -
[3]; with (+) S9-Mix
  Ames test result, TA 100: -
[3]; without (-) S9-Mix
  Ames test result, TA 100: -

## 2,4-diaminotrifluoroethoxybenzene
[1]; with (+) S9-Mix
  Ames test result, TA 98: ++
[1]; without (-) S9-Mix
  Ames test result, TA 98: -
[2]; with (+) S9-Mix
  Ames test result, TA 97: -
[2]; without (-) S9-Mix
  Ames test result, TA 97: -
[3]; with (+) S9-Mix
  Ames test result, TA 100: (+)
[3]; without (-) S9-Mix
  Ames test result, TA 100: -

Source: patent publication US4845294A, “Diaminotetrafluoroethoxybenzenes” (Wella Aktiengesellschaft, priority 1984, dated 1989)
